# Measurements: patent publication US9096531B2, “Fused imidazole derivative” (TOA EIYO LTD., priority 2010, dated 2015)
# Target: T1, human T-type calcium channels (human Cav3.2) (Homo sapiens, UniProt O95180)
# T1 construct: expressed in transfected cells
# Assay: Intracellular calcium (Fura2 fluorescence) assay in HEK293 cells stably expressing human Cav3.2
# Assay type: cell-based
# Conditions: Fura2 fluorescence ratio after calcium chloride addition, 15 min with compound
# Protocol: Representative compounds of the present invention were tested on the selective antagonistic effect against T-type calcium channels (Cav3.2) by way of the following Test Example. For each test, human embryonic kidney cells (HEK293 cells) in which human T-type calcium channels (human Cav3.2) were stably expressed were used.
# HEK293 cells in which human Cav3.2 were stably expressed were cultured at 37° C. in Alpha-MEM containing 10% (v/v) fetal bovine serum (FBS), penicillin (100 U/mL), streptomycin (100 μg/mL) and G418 (250 μg/mL). The cells were suspended in the culture medium and seeded onto a 96-well plate, and then the cells were cultured for 24 hours. The culture medium was removed, and the culture medium was replaced with S-MEM containing 5% (v/v) FBS, calcium chloride (0.5 mmol/L), L-glutamine (2 mmol/L), L-alanine (8.9 ng/mL), L-asparagine (13.2 ng/mL), L-aspartic acid (1.33 ng/mL), L-glutamic acid (1.47 ng/mL), glycine (7.5 ng/mL), L-proline (11.5 ng/mL), L-serine (10.5 ng/mL), penicillin (100 U/mL), and streptomycin (100 μg/mL). The cells were cultured for another 24 hours. The culture medium was removed again, and the cells were washed with an assay buffer (140 mmol/L sodium chloride, 5 mmol/L potassium chloride, 0.5 mmol/L magnesium chloride, 0.5 mmol/L calcium chloride, 10 mmol/L glucose, 0.4 mmol/L magnesium sulfate, 10 mmol/L HEPES, and 250 μmol/L sulfinpyrazone, pH 7.4) that had been kept warm at 37° C. Subsequently, the assay buffer in which Fura2-AM, which is a fluorescent Ca^2+ indicator, was dissolved at 5 μM was added to the cells, and the cells were cultured at 37° C. for 30 minutes. The assay buffer containing dissolved Fura2 was removed, and the cells were washed with the assay buffer. Subsequently, the assay buffer to which a test compound had been added was added to the cells, and the cells were cultured for 15 minutes. The plate was placed in a fluorescence analyzer (Flex Station II, Molecular Devices, LLC), the baseline was measured, and then the change in the intracellular calcium concentration that was caused when an assay buffer containing 100 mmol/L calcium chloride was added, was measured (excited at 340 nm and 380 nm, and detected at 510 nm). Thus, the fluorescence intensity ratios obtainable at the respective wavelengths were calculated.
# Meanwhile, the test compound solution was prepared by dissolving each of the test compounds in DMSO to a concentration of 10 mmol/L, and then adding the assay buffer to a predetermined concentration. As a control solution, DMSO was used instead of the test compounds.
# The inhibitory effect value (%) of each test compound was calculated by subtracting the average value of the fluorescence intensity ratio for the period of 0 to 20 seconds after the initiation of measurement, from the average value of the fluorescence intensity ratio for the period of 45 to 50 seconds after the initiation of measurement, and comparing the activity in the presence of the test compound with the value in the control solution as the maximum activity of Cav3.2.
# Curve fitting formula (Model 08: Sigmoidal Inhibition Curve, Vmax+Y2 to Y2) Y=Vmax×(1−(X^n/(K^n+X^n)))+Y2
# % inhibition value=(RFU (compound)—RFU(LC))/(RFU (HC)−(RFU(LC))
# HC: Average of RFU value for the period of 25 to 30 seconds after the addition of Ca^2+-containing assay buffer after the control solution treatment (for the period of 45 to 50 seconds after the initiation of measurement)
# LC: Average of RFU value for the period of 25 to 30 seconds after the addition of non-Ca^2+-containing assay buffer after the control solution treatment (for the period of 45 to 50 seconds after the initiation of measurement)
# The RFU in the formula represents the relative fluorescence unit.
# T1 sequence (O95180 whole entry): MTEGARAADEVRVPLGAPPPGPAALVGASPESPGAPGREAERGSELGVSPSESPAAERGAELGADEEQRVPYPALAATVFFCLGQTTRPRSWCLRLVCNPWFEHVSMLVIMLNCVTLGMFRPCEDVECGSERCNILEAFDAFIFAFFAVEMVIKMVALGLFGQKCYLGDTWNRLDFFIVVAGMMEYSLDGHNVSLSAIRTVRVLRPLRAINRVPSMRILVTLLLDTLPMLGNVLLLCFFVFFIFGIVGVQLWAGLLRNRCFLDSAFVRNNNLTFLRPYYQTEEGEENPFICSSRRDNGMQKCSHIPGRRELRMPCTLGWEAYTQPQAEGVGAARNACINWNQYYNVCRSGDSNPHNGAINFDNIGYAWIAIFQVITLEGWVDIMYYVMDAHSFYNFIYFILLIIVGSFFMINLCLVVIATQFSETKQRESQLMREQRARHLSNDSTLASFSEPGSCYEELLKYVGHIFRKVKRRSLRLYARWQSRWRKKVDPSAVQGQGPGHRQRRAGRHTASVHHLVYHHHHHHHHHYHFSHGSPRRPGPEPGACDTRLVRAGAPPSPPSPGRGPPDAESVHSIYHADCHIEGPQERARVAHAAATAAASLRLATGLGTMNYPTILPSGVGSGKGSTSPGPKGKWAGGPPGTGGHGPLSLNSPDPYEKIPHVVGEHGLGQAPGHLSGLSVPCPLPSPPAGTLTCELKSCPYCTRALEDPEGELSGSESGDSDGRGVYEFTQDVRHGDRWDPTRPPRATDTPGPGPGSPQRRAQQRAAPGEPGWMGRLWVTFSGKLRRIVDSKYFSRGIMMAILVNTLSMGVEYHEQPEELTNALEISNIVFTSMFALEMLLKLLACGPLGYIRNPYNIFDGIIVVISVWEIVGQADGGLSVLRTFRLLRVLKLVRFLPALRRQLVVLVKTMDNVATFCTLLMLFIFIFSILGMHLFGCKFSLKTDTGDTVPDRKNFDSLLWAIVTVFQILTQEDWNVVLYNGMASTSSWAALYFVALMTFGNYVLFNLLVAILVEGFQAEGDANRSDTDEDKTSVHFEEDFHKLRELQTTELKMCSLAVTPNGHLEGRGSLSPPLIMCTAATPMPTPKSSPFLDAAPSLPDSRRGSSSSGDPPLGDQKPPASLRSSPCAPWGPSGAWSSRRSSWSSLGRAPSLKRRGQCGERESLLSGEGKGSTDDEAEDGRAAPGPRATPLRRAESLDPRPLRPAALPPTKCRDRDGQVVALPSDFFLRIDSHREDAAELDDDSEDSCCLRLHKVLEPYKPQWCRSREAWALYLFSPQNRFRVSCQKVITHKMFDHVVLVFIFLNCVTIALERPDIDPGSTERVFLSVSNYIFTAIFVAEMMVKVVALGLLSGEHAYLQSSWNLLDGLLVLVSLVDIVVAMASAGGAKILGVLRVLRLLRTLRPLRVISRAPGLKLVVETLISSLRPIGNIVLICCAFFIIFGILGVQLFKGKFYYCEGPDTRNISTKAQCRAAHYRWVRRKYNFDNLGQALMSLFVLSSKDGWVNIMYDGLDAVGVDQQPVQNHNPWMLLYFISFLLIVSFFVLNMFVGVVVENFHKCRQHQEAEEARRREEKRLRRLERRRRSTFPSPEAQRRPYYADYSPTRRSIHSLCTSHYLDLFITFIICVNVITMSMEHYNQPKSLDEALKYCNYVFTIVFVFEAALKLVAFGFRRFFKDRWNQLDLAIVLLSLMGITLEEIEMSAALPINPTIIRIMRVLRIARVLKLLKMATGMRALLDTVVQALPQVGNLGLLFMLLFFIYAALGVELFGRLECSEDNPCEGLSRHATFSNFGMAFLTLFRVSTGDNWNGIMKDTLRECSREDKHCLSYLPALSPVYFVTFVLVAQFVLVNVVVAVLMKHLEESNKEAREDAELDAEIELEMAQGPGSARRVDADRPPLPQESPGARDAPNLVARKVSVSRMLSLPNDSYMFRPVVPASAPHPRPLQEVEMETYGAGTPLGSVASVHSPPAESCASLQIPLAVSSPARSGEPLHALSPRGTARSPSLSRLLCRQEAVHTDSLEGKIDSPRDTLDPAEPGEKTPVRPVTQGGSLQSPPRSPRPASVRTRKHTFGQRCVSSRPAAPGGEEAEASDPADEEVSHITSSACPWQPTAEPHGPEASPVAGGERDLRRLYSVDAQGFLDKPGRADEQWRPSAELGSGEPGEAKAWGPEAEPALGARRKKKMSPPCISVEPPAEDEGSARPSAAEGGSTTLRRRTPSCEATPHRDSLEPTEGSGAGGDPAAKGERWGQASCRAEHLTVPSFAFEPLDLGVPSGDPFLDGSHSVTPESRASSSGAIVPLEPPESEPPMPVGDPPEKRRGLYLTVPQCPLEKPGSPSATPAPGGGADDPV
row,IC50,SMILES
1,320 nM,"OC(c1ccc(OC(F)(F)F)cc1)c1nc2cc(F)ccc2[nH]1 (stereo not shown) [Example 1, (5-Fluoro-1H-benzimidazol-2-yl)-(4-trifluoromethoxyphenyl)methanol]"
2,470 nM,OC(c1ccc(SC(F)(F)F)cc1)c1nc2cc(F)ccc2[nH]1 (stereo not shown) [Example 3]
3,650 nM,OC(c1ccc(C(F)(F)F)cc1)c1nc2cc(F)ccc2[nH]1 (stereo not shown) [Example 4]
4,210 nM,OC(c1ccc(C(F)(F)F)c(F)c1)c1nc2cc(F)ccc2[nH]1 (stereo not shown) [Example 5]
5,590 nM,OC(c1ccc(OC(F)(F)C(F)F)cc1)c1nc2cc(F)ccc2[nH]1 (stereo not shown) [Example 6]
6,100 nM,OC(c1ccc(OC(F)(F)F)c(F)c1)c1nc2cc(F)ccc2[nH]1 (stereo not shown) [Example 12]
7,270 nM,OC(c1ccc(OC(F)(F)F)c(Br)c1)c1nc2cc(F)ccc2[nH]1 (stereo not shown) [Example 13]
8,490 nM,OC(c1ccc2c(c1)OC(F)(F)O2)c1nc2cc(F)ccc2[nH]1 (stereo not shown) [Example 16]
9,920 nM,CCOC(c1ccc(C(F)(F)F)cc1)c1nc2cc(F)ccc2[nH]1 (stereo not shown) [Example 27]
10,370 nM,CCOC(c1ccc(OC(F)(F)F)c(F)c1)c1nc2cc(F)ccc2[nH]1 (stereo not shown) [Example 29]
11,630 nM,CCOC(c1ccc2c(c1)OC(F)(F)O2)c1nc2cc(F)ccc2[nH]1 (stereo not shown) [Example 32]
12,10 nM,"OC(c1ccc(OC(F)(F)F)cc1)c1nc2cc(Cl)cnc2[nH]1 (stereo not shown) [Example 44, (6-Chloro-3H-imidazo[4,5-b]pyridin-2-yl)-(4-trifluoromethoxyphenyl)methanol]"
13,220 nM,OC(c1ccc(OC(F)(F)F)cc1)c1nc2ccc(Cl)nc2[nH]1 (stereo not shown) [Example 46]
14,590 nM,CCCSc1ccc2[nH]c(C(O)c3ccc(OC(F)(F)F)cc3)nc2c1 (stereo not shown) [Example 47]
15,160 nM,OC(c1ccc(OC(F)(F)F)cc1)c1nc2cccnc2[nH]1 (stereo not shown) [Example 49]
16,50 nM,OC(c1ccc2c(c1)OC(F)(F)O2)c1nc2cc(Cl)cnc2[nH]1 (stereo not shown) [Example 50]
17,170 nM,CCOC(c1ccc(OC(F)(F)F)cc1)c1nc2cc(Cl)cnc2[nH]1 (stereo not shown) [Example 53]
18,700 nM,CCOC(c1ccc(OCc2ccc(F)cc2)cc1)c1nc2cc(Cl)cnc2[nH]1 (stereo not shown) [Example 58]
19,580 nM,"CCOC(c1ccc(OC(F)(F)F)cc1)c1nc2cc(F)ccc2[nH]1 (stereo not shown) [Example 70, 2-[Ethoxy(4-trifluoromethoxyphenyl)methyl]-5-fluoro-1H-benzimidazole]"
20,780 nM,COC(c1ccc(OC(F)(F)F)cc1)c1nc2cc(F)ccc2[nH]1 (stereo not shown) [Example 89]
21,960 nM,CCOc1ccc2[nH]c(C(OCC)c3ccc(SC(F)(F)F)cc3)nc2c1 (stereo not shown) [Example 91]
22,370 nM,OC(c1ccc(OC(F)(F)F)cc1)c1nc2cc(Br)ccc2[nH]1 (stereo not shown) [Example 112]
23,190 nM,"N#Cc1ccc2[nH]c(C(O)c3ccc(OC(F)(F)F)cc3)nc2c1 (stereo not shown) [Example 114, 2-[Hydroxy(4-trifluoromethoxyphenyl)methyl]-1H-benzimidazole-5-carbonitrile]"
24,990 nM,"CCOC(c1ccc(OC(F)(F)F)cc1)c1nc2cc(C#N)ccc2[nH]1 (stereo not shown) [Example 115, 2-[Ethoxy(4-trifluoromethoxyphenyl)methyl]-1H-benzimidazole-5-carbonitrile]"

# Target: T1, human T-type calcium channels (human Cav3.2)
# Assay: Electrophysiological test (patch clamp method) in HEK293 cells stably expressing human Cav3.2
# Assay type: cell-based
# Conditions: auto-patch clamp, peak calcium current, holding potential -80 mV, pulse of -20 mV
# Protocol: For each test, human embryonic kidney cells (HEK293 cells) in which human T-type calcium channels (human Cav3.2) were stably expressed were used.
# HEK293 cells in which human Cav3.2 were stably expressed were cultured at 37° C. in Alpha-MEM containing 10% (v/v) fetal bovine serum (FBS), penicillin (100 U/mL), streptomycin (100 μg/mL) and G418 (250 μg/mL). The cells were dissociated by Accutase (Sigma-Aldrich Co.) treatment and were used as a suspension in the culture medium. The calcium current was measured with an auto-patch clamp system (Port-a-Patch, Nanion Technologies, GmbH), by using an internal solution (50 mmol/L CsCl, 10 mmol/L NaCl, 60 mmol/L CsF, 2 mmol/L MgCl2, 20 mmol/L EGTA, 10 mmol/L HEPES/CsOH, pH 7.2) and an external solution (80 mmol/L NaCl, 1 mmol/L TEAC1, 3 mmol/L KCl, 35 mmol/L CaCl2, 10 mmol/L MgCl2, 10 mmol/L HEPES, pH 7.2).
# The inhibitory effect of the compound against the peak current was measured by fixing the holding potential at −80 mV, and applying a pulse of −20 mV to the cells at an interval of 5 seconds. The compound evaluation was carried out by sequentially replacing the external solution containing the compound (1 μmol/L, 3 μmol/L, 10 μmol/L, and 50 μmol/L), and measuring the current. The inhibition ratio was calculated from the peak current value, and the IC50 value was determined by converting the inhibition ratio according to a probit analysis, and then calculating the IC50 value from an approximation formula deduced by linear regression.
row,IC50,SMILES
1,1920 nM,"OC(c1ccc(OC(F)(F)F)cc1)c1nc2cc(F)ccc2[nH]1 (stereo not shown) [Example 1, (5-Fluoro-1H-benzimidazol-2-yl)-(4-trifluoromethoxyphenyl)methanol]"
2,1010 nM,"OC(c1ccc(OC(F)(F)F)cc1)c1nc2cc(Cl)cnc2[nH]1 (stereo not shown) [Example 44, (6-Chloro-3H-imidazo[4,5-b]pyridin-2-yl)-(4-trifluoromethoxyphenyl)methanol]"
3,1770 nM,CCOC(c1ccc(OC(F)(F)F)cc1)c1nc2cc(Cl)cnc2[nH]1 (stereo not shown) [Example 53]
4,1760 nM,"CCOC(c1ccc(OC(F)(F)F)cc1)c1nc2cc(F)ccc2[nH]1 (stereo not shown) [Example 70, 2-[Ethoxy(4-trifluoromethoxyphenyl)methyl]-5-fluoro-1H-benzimidazole]"
